Consider three compounds from patent US10233205B2, “Magnetic resonance imaging contrast agent capable of detecting hydrogen peroxide and reducing reactive oxygen species” (Auburn University, priority 2015, dated 2019).

Entries after “also recorded” stand apart in the source; their conditions may differ.

A short description of data set [1]: T1-weighted relaxivity (r1) on 3 T clinical MRI scanner. The class given is physicochemical. The conditions noted are these: for r1 after addition of H2O2 / r1, second series of experiments, after H2O2 (oxidized form) / r1, second series of experiments, before H2O2 (reduced form) / r1 (T1-weighted relaxivity): 50 mM HEPES pH 7.00, 3 T; for r1 after addition of H2O2 / r1 (T1-weighted relaxivity): 25° C.; for r1, second series of experiments, after H2O2 (oxidized form) / r1, second series of experiments, before H2O2 (reduced form): 298 K; for r1 (T1-weighted relaxivity): no oxidant.
From the text: All MRI data were collected at the Auburn University MRI Research Center (Auburn, Ala.) on a Siemens Verio open-bore 3-T MRI clinical scanner. A 15-channel knee coil was used to simultaneously image 12-26 samples. An inversion recovery (IR) sequence was used that featured a non-selective adiabatic inversion pulse followed by a slice-selective gradient recalled echo (GRE) readout after a delay period corresponding to the inversion time (TI).^1-2 The GRE was a saturation readout, such that only one line of k-space was acquired per repetition time (TR). This method was selected to maximize both the signal strength and the accuracy of the T1 estimates. Specific imaging parameters were as follows: TR was set to 4 s, TI was varied from 4.8 to 2500 ms over 37 steps, the echo time (TE) was set to 3.6 ms, the flip angle equaled 90°, averages=1, slice thickness=5 mm, field of view=140×140 mm, matrix=128×128, resulting in a pixel size of 1.1×1.1×5.0 mm. All samples were run in 50 mM solutions of HEPES in water, buffered to pH 7.0 and kept at […]. The manganese content was systematically varied from 0.10 to 1.00 mM. The inverses of the T1 values were plotted versus the concentration of Mn(II) to obtain r1 values. All reported r1 values are averages from the results of two separate series of experiments. Each series of experiments used a different batch of 1.
Image analysis was performed using custom Matlab programs (Mathworks, Natick, Mass.). The initial TI=4.8 ms image served as a baseline to determine circular region of interest (ROI) boundaries for each sample; from these, the mean pixel magnitudes for each ROI were calculated. For each of the 36 subsequent TI images, the same ROI boundaries were applied and the mean pixel magnitude calculations were repeated. This gave consistent ROI spatial definitions and a corresponding time course of magnitudes for each of the samples over all the TI time points. Each sample's complex phase was used to correct the magnitude polarity to produce a complete exponential T1 inversion recovery curve. The Nelder-Mead simplex algorithm^3 was applied to each sample's exponential curve to estimate its corresponding T1 value.
(§1) For the relaxivity measurements, all samples were run in 298 K aqueous solutions containing 50 mM HEPES buffered to pH 7.00, using a 3 T field provided by a clinical MRI scanner. The data were fit to the indicated linear equations; the y-intercepts were within error of 1/T1 measurements associated with two control samples that contained no Mn(II): (A) 10 mM H2O2 in 50 mM HEPES buffer and (B) pure 50 mM HEPES buffer (both 0.46 s^−1).
as §1, with “All” for “For the relaxivity measurements, all”, “s^−1). The oxidation of 1 by 2,3-dichloro-5,6-dicyano-1,4-benzoquinone (DDQ) occurred in CH2Cl2. After the reaction occurred, the 2,3-dichloro-5,6-dicyanoquinol product was removed via filtration, the CH2Cl2 was removed, and the sample was dissolve in HEPES buffer for MRI analysis. The other oxidation reactions occurred entirely in HEPES buffer.” for “s^−1).”
The capability of 3 to serve as a MRI contrast agent was assessed with a 3 T clinical MRI scanner. All samples were run in 298 K aqueous solutions containing 50 mM HEPES buffered to pH 7.00, using a 3 T field provided by a clinical MRI scanner. All samples were prepared under air. The oxidized samples were prepared by directly adding H2O2 to solutions of 3 in aqueous solutions buffered to pH 7.0. The oxidation reactions were allowed to proceed for 30 min at 298 K before the T1 measurements were taken. […]

Data set [2] in a line: Stability in aerobic solution / to pH. The class given is physicochemical. As to the method: Over this time, collected UV/vis spectra (FIGS. 2 & 3) display changes in the region between 200 nm and 300 nm which are consistent with the oxidation of the quinol to a para-quinone. Past 24 h, the solution begins to turn brown, consistent with oxidation of the manganese to Mn(III) and/or Mn(IV). For the spectrophotometric analysis, the Fe(ClO4)2 solution was added to a MeCN solution containing 0.10 mM [Mn(Hptp1)(MeCN)]^2+; the mixture was scanned at 0 min (dashed red), 30 min (dashed pink), and 60 min (dashed blue). […] At 15 h, approximately 11% of the Mn(II) has been displaced by Fe(II) as indicated by data in FIG. 3.
The stability of 3 to air and adventitious metal ions was assessed primarily by UV/vis spectroscopy. […] Complex 3, however, is susceptible to metal exchange. When equimolar amounts of 3 and Fe(ClO4)2 are mixed in MeCN, 80% of the Mn(II) is replaced by Fe(II) by 3 h.

For “cis-Dibromo(N,N′-bis(2,5-dihydroxybenzyl)-N,N′-bis(2-pyridinylmethyl)-1,2-ethanediamine)manganese(II) [Complex 3]”, in data set [1], the “increase of relaxivity upon exposure to H2O2” value was 31%; the “r1, second series of experiments, before H2O2 (reduced form)” value was 5.64 mM⁻¹ s⁻¹; the “r1 (T1-weighted relaxivity)” value is 5.46 (+0.19) mM^−1 s^−1. In addition, in data set [1] (10 mM H2O2), the “r1 response to H2O2” value was 1.71 mM⁻¹ s⁻¹; the “r1 after addition of H2O2” value is 7.17 (+0.15) mM^−1 s^−1; the “r1, second series of experiments, after H2O2 (oxidized form)” value stood at 7.32 mM⁻¹ s⁻¹. Further, in data set [2], the “stability in aerobic solution” value is recorded as “moderately stable in aerobic aqueous solutions above pH 7.0”. Further, the “error introduced by air oxidation” value in data set [2] (aerated MeOH, 4 h) is reported as < 5%. The “decrease in intensity of 302 nm quinol feature” value in data set [2] (aerated MeOH, 12 h) is listed as “about 10%”.
As for `CC#N.O=S(=O)([O-])C(F)(F)F.O=S(=O)([O-])C(F)(F)F.[Mn+2].[O-]c1ccc(O)cc1CN(CCN(Cc1ccccn1)Cc1ccccn1)Cc1ccccn1` [Complex 1, Acetonitrilo(N-(2,5-dihydroxy-benzyl)-N,N′,N′-tris(2-pyridinylmethyl)-1,2-ethanediamine)manganese(II) triflate], in data set [1] (10 mM H2O2), the “r1 after addition of H2O2” value is 5.30 mM⁻¹ s⁻¹ and the “r1, second series of experiments, after H2O2 (oxidized form)” value was found to be 5.30 mM⁻¹ s⁻¹. In addition, in data set [1], the “r1, second series of experiments, before H2O2 (reduced form)” value was determined as 4.73 mM⁻¹ s⁻¹ and the “r1 (T1-weighted relaxivity)” value is 4.73 mM⁻¹ s⁻¹. Further, the “stability in aerobic solution” value in data set [2] is recorded as “sufficiently stable in aerobic water solutions; also recorded: slightly sensitive towards oxygen”.
For `CC#N.Cc1ccc(O)c(CN(CCN(Cc2ccccn2)Cc2ccccn2)Cc2ccccn2)c1.[Mn+2].[O-][Cl+3]([O-])([O-])[O-].[O-][Cl+3]([O-])([O-])[O-]` [Complex 2, reference compound], the “r1 (T1-weighted relaxivity)” value in data set [1] is 4.39 mM⁻¹ s⁻¹.
